The record followed here is paper PMC7613620, “Reaction hijacking of tyrosine tRNA synthetase as a whole-of-life-cycle antimalarial strategy” (Science (New York, N.Y.), 2022).

A word on the IC50: it is the concentration at which inhibition is half-maximal. The low end stands for higher potency, the high end for lower potency. In general, Vd refers to a proportionality between amount in the body and measured concentration, not a real space. Higher therefore signals extensive tissue distribution. As a reminder, the Cmax is the highest concentration seen after dosing.

For series [1], the target named is NEDD8-activating enzyme (NAE) (Homo sapiens, UniProt Q8TBC4). Briefly: E1-E2 transthiolation HTRF assay, NAE. It counts as biochemical. From the text: (§1) 592 E1-E2 Transthiolation Assays
NEDD8-activating enzyme (NAE), sequence (Q8TBC4 whole entry): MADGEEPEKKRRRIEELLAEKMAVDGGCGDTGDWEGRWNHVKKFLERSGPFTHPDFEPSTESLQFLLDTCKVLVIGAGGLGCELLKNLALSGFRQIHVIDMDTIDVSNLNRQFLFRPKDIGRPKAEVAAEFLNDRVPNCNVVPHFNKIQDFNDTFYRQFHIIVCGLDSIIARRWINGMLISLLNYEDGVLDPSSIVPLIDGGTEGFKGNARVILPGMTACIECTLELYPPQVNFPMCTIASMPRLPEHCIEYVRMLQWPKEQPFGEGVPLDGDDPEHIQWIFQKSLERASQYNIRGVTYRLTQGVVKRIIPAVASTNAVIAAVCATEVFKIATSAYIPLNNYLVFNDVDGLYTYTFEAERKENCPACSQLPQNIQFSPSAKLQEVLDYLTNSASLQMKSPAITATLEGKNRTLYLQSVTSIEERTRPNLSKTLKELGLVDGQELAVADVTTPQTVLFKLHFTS
NEDD8-activating enzyme (NAE), sequence (Q13564 whole entry partner): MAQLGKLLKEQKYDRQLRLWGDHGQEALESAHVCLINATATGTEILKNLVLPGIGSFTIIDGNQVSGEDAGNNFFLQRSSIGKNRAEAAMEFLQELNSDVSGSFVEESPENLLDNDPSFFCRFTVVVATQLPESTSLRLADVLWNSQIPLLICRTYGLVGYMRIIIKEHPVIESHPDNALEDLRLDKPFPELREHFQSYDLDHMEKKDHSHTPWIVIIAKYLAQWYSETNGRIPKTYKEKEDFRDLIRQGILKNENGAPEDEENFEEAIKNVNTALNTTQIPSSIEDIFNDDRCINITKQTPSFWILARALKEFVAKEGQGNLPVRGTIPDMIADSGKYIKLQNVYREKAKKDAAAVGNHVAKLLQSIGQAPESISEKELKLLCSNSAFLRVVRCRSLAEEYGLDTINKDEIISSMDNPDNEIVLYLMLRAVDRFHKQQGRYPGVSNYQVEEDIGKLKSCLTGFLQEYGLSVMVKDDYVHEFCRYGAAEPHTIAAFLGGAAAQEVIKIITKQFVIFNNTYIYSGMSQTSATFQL
(§2) 593 An Homogeneous Time-Resolved Fluorescence (HTRF) enzyme assay was employed to evaluate
(§3) 594 compound activity against ATG7 as previously described (11). In this assay, a Flag-tagged ATG8 homolog
(§4) 595 (GABA type A receptor-associated protein; GABARAP) is activated by ATG7 and then transthiolated to a
(§5) 596 GST-tagged E2 (ATG3). The product of the enzyme reaction, Flag-GABARAP-ATG3-GST, is quantified
(§6) 597 by measuring FRET between Europium-Cryptate labelled monoclonal anti-Flag M2 (CisBio International,
(§7) 598 Cat# 61FG2KLB) and PHYCOLINK goat anti-GST allophycocyanin (Prozyme, PJ252p1). The activation
(§8) 599 and transthiolation of ubiquitin by Ubiquitin Activating Enzyme, activation and transthiolation of NEDD8
(§9) 600 by NEDD8 Activating Enzyme. […]
(§10) 606 Compounds were incubated with mature stage V gametocytes ([…], kind gift from Professor Chris Janse
(§11) 607 at Leiden University Medical Center (LUMC), the Netherlands) for 48 hours in 384 well plates before
(§12) 608 gamete formation was triggered by a drop in temperature and addition of xanthurenic acid. […]
(§13) 611 Multiple data sets using different gametocyte cultures were collected on each of two separate days.
(§14) 613 Activity against exoerythrocytic stages
(§15) 614 Primary human hepatocytes (H1500.H15B+ Lot No. HC10-10 Cryopreserved human hepatocytes) […]
In general terms: TR-FRET usually uses a lanthanide donor and a delayed reading to cut background.

Series [2] addresses ubiquitin activating enzyme (UAE) (Homo sapiens, UniProt P22314). Briefly: E1-E2 transthiolation HTRF assay, UAE. It counts as biochemical.
Description: as §1, §2, §3, §4, §5, §6, §7, §8, §9, §10, §11, §12, §13, §14, §15

A short description of another series: in vivo. To be noted: male, Sprague-Dawley, rat. Here is the method:
625 of 50 mg/kg of compound on day 3 post-infection and measuring the effect on blood parasitemia by
626 microscopic analysis of Giemsa-stained blood smears (on days 3, 4, 5, 6 and 7 post-infection). Mice were
630 Human biological samples were sourced ethically; and their research use was in accord with the terms of
631 the informed consent. All animal studies were ethically reviewed and carried out in accredited facilities in
632 accordance with the relevant country’s directives and the institution’s Policy on the Care, Welfare and
633 Treatment of Animals.
635 Plasma exposure in infected mouse model
636 Compound was administered orally to two mice at 25 mg/kg on days 3, 4, 5, 6 after infection. On day 3,
637 blood samples (20 μL) were obtained at time points up to 24 hours after the first administration. Protein was
638 precipitated with acetonitrile and the remaining compound was assessed by LC-MS/MS in the selected reaction
641 Rat pharmacokinetics (PK) analyses
642 Sprague-Dawley rats (11 weeks old) were sourced from Hilltop Lab Animals, Inc (Scottdale, Pennsylvania,
643 USA). […]
648 0.5% formic acid in methanol and the supernatants were analysed by positive ion electrospray LC-MS for
649 the administered compound. Non-compartmental pharmacokinetic parameters were calculated from […]
660 IGM Genomics Center on the Illumina HiSeq 2500 in RapidRun mode to generate 100bp paired-end reads.

The target in a further series is T1, HsYRS (Homo sapiens, UniProt P54577).
T1 construct: made in house; host or cells: E. coli BL21(DE3), pET-11a
T1 sequence (P54577 1-364): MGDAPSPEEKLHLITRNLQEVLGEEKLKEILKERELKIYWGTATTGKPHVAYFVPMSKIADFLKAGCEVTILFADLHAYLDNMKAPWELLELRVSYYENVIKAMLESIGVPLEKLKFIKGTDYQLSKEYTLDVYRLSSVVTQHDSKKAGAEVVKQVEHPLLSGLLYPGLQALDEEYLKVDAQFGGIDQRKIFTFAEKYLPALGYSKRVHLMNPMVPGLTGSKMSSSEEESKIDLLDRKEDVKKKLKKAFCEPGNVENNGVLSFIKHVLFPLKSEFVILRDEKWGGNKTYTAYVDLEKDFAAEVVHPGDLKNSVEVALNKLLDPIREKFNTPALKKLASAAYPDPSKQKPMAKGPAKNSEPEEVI
Briefly: Tyrosine acylation of cognate tRNATyr by HsYRS. It counts as biochemical. To be noted: YRS 0.25 μM, ATP 10 μM, 37°C 1 h.

Bounds are passed on as bounds.

ubiquitin activating enzyme (UAE), sequence (P22314 whole entry): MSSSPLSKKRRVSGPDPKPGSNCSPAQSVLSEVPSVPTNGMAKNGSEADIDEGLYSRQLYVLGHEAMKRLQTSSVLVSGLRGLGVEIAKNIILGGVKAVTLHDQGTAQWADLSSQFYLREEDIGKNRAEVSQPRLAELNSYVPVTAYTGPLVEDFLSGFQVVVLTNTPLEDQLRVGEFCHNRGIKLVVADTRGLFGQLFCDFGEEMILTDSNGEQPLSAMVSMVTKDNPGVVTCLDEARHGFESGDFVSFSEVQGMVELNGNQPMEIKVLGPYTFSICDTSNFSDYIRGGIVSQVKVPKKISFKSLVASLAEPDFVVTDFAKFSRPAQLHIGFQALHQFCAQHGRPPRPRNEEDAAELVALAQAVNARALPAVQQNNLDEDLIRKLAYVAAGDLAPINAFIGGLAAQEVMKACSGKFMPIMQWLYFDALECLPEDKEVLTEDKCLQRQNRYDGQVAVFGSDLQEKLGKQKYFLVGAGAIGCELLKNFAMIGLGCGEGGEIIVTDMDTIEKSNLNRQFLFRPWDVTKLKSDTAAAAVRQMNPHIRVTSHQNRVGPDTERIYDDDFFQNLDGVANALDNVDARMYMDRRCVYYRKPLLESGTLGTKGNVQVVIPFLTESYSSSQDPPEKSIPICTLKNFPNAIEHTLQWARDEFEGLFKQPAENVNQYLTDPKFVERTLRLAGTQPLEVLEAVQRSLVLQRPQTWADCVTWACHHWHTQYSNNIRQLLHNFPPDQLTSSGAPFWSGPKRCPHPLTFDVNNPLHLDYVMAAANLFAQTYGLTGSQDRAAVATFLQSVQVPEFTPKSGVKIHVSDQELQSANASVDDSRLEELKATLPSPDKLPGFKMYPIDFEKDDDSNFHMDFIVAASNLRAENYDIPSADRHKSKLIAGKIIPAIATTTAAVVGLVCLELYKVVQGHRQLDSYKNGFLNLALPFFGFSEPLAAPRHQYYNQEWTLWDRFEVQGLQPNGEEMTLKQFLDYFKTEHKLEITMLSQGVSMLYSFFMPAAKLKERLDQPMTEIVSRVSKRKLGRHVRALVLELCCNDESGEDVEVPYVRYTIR

Consider `Nc1ncnc2c1c(OC(F)F)nn2[C@@H]1O[C@H](COS(N)(=O)=O)[C@@H](O)[C@H]1O` [ML901], for which the IC50 in series [1] was over 1000 nM; in series [2] it was over 1000 nM; on HsYRS it was over 500000 nM. The Vd in the series “in vivo” (iv, 1 mg/kg, Vss) turned out to be 4.89 L/kg. In addition, the peak concentration (Cmax) in the series “in vivo” (po, 10 mg/kg, p.o. Cmax) came out at 130 nM.
